Calls of active or inactive are those of the source. The calls are words filed in the database; no cut-off is given here.

Assay [1] has as its target Carbonic anhydrase 9 (Homo sapiens) (UniProt Q16790). Nature of the assay: Binding affinity to recombinant carbonic anhydrase 9 (unknown origin) at 5 to 10 uM preincubated for 2 hrs in dark followed by irradiation with LED UV flashlight at 365 nm for 30 mins in presence of azide fluor 488 staining by SDS-PAGE based fluorescence imaging.
For assay [2] the target is unchanged. Description: Binding affinity to carbonic anhydrase 9 in human MDA-MB-231 cell lysate at 5 uM preincubated for 3 hrs in dark followed by irradiation with LED UV flashlight at 365 nm for 30 mins in presence of 4-(2-((4-(4-(benzyl(prop-2-yn-1-yl)amino)piperidin-1-yl)-6-chloro-1,3,5-triazin-2-yl)amino)ethyl)benzenesulfonamide by biotin-azide/neutravidin agarose gel based Western blot analysis.

For assay [3] the target is unchanged. Description: Binding affinity to carbonic anhydrase 9 in human MDA-MB-231 cell lysate at 5 uM preincubated for 3 hrs in dark followed by irradiation with LED UV flashlight at 365 nm for 30 mins by biotin-azide/neutravidin agarose gel based Western blot analysis.
For assay [4] the target is unchanged. Description: Binding affinity to recombinant carbonic anhydrase 9 (unknown origin) at 5 to 10 uM preincubated for 2 hrs in dark followed by irradiation with LED UV flashlight at 365 nm for 30 mins in presence of 50 fold excess of 4-(2-((4-(4-(benzyl(prop-2-yn-1-yl)amino)piperidin-1-yl)-6-chloro-1,3,5-triazin-2-yl)amino)ethyl)benzenesulfonamide by SDS-PAGE based fluorescence imaging.

The target is the same in assay [5]. Description: Binding affinity to recombinant carbonic anhydrase 9 (unknown origin) at 5 to 10 uM preincubated for 2 hrs in dark followed by irradiation with LED UV flashlight at 365 nm for 30 mins in presence of coomassie brilliant blue G250 staining by SDS-PAGE based fluorescence imaging.
For assay [6], the target named is NT-3 growth factor receptor (Homo sapiens) (UniProt Q16288). Description: Binding affinity to recombinant TrkC (unknown origin) at 10 to 25 uM incubated for 1 hr in dark in presence of azide fluor 488 staining by SDS-PAGE based fluorescence imaging.
Chain of NT-3 growth factor receptor (Homo sapiens) (Q16288 32-839 limits assumed): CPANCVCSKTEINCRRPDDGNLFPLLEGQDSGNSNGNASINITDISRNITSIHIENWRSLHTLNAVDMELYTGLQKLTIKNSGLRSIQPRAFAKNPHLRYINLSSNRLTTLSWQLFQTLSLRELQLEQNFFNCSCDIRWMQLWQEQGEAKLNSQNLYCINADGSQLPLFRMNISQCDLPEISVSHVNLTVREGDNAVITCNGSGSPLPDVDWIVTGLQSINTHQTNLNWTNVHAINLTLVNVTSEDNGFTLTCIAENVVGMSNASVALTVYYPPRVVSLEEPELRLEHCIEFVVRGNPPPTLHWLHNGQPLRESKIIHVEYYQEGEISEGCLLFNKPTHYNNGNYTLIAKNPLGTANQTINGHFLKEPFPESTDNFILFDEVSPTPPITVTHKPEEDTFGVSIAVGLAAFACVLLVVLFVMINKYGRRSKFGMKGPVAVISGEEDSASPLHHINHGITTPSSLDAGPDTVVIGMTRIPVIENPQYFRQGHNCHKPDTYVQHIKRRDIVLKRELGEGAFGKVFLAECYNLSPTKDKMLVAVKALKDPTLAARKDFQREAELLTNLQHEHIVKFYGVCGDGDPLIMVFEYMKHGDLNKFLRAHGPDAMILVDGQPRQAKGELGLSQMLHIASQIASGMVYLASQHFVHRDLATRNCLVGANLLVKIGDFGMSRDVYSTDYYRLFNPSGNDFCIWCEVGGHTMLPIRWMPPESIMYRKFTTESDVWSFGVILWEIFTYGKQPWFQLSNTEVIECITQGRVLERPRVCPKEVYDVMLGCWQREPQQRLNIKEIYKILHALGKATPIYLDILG
For assay [7] the target is unchanged. Description: Binding affinity to recombinant TrkC (unknown origin) at 10 to 25 uM preincubated for 1 hr in dark followed by irradiation with LED UV flashlight at 365 nm for 30 mins in presence of 80 fold excess of (2S,2'S)-1,1'-((6-(4-(benzyl(prop-2-yn-1-yl)amino)piperidin-1-yl)-1,3,5-triazine-2,4-diyl)bis(piperazine-4,1-diyl))bis(2-(4-((1S,2S)-1-amino-2-methylbutyl)-1H-1,2,3-triazol-1-yl)-3-(4-hydroxyphenyl)propan-1-one) by SDS-PAGE based fluorescence imaging.

Assay [8] has the same target. Description: Binding affinity to TrkC (unknown origin) expressed in mouse NIH3T3 cell lysate at 10 uM preincubated for 3 hrs in dark followed by irradiation with LED UV flashlight at 365 nm for 30 mins by biotin-azide/neutravidin agarose gel based Western blot analysis.
The target is the same in assay [9]. Description: Binding affinity to recombinant TrkC (unknown origin) at 10 to 25 uM preincubated for 1 hr in dark followed by irradiation with LED UV flashlight at 365 nm for 30 mins in presence of azide fluor 488 staining by SDS-PAGE based fluorescence imaging.

`C#CCN(Cc1ccc(C2(C(F)(F)F)N=N2)cc1)C1CCN(c2nc(Cl)nc(NCCc3ccc(S(N)(=O)=O)cc3)n2)CC1`: the result in assay [1], in assay [3] and in [5] was Active. Moreover, the result in assay [2] and in assay [4] was inactive.
For `C#CCN(Cc1ccc(C2(C(F)(F)F)N=N2)cc1)C1CCN(c2nc(N3CCN(C(=O)[C@H](Cc4ccc(O)cc4)n4cc([C@@H](N)[C@@H](C)CC)nn4)CC3)nc(N3CCN(C(=O)[C@H](Cc4ccc(O)cc4)n4cc([C@@H](N)[C@@H](C)CC)nn4)CC3)n2)CC1`, the outcome in assay [6] and in [7] was inactive. The outcome in assay [8] and in assay [9] was Active.
